Results on twelve molecules are retold here after publication PMC11323243, “Novel Inhibitors of SARS-CoV-2 RNA Identified through Virtual Screening” (Journal of Chemical Information and Modeling, 2024).

This assay deals with Omicron (BA.1) SARS-CoV-2. Put plainly: Antiviral activity, plaque reduction assay on Vero E6 cells. The following applies: for EC50: Severe acute respiratory syndrome coronavirus 2, Vero C1008, 72 h, read-out: EC50, effective concentration inhibiting 50% of the virus. Format: cell-based. (Plaques are areas of infected cells; plaque reduction assays count them against a control.)

“Also recorded” adds a separate entry of the source.

Take `OCC1CN(Cc2cc3c(cc2Cl)OCO3)CC1CN1CCOCC1` (centres unmarked) [Compound 178]: the “antiviral activity against SARS-CoV-2 (in words)” value (from here on “antiviral activity”) is “decrease in potency” and the EC50 is 103 µM. On to `NCCc1ccc(CN2CCC(O)(c3cccc(C(F)(F)F)c3)CC2)cc1` [Compound 188], for which the EC50 worked out at 17.2 µM. On the same count and under the same terms, the value for `Cc1cc2c(cc1CN1CC(CO)C(CN3CCCCCC3)C1)OCCO2` (centres unmarked) [Compound 194] was 28.9 µM; that for `OC1CN(Cc2cccc3cc[nH]c23)CCN(c2ccncc2)C1` (centres unmarked) [Compound 229] was 26.8 µM. On to `OCC1CN(Cc2cc3c(cc2Cl)OCO3)CC1CN1CCCCCC1` (centres unmarked) [Compound 269], for which the “antiviral activity” value is on record as “retained activity against the wild-type virus albeit with reduced potency” and the EC50 came out at 53.9 µM. Turning to `Cc1cc2c(cc1CN1CC(CO)C(CN3CCOCC3)C1)OCCO2` (centres unmarked) [Compound 325], the “antiviral activity” value was “did not inhibit wild-type virus; also recorded: loss of antiviral activity against SARS-CoV-2”. In the case of `CN(C)CCN(C)CC1CN(Cc2ccc3c(c2)OCCO3)CC1CO` (centres unmarked) [Compound 570], the EC50 amounted to 38.5 µM.

Turning to `Cc1cc2c(cc1CN1CC(CO)C(CN3CCN(C)CC3)C1)OCCO2` (centres unmarked) [Compound 782], the EC50 amounted to 4.07 µM. On the same count and under the same terms, the value for `Cc1cc2c(cc1CN1CC(CO)C(CN3CCCC3)C1)OCO2` (centres unmarked) [Compound 789] was 44 µM. Still for that read-out and setting: with `OC1CCCN(C2CCN(Cc3ncc[nH]3)CC2)C1` (centres unmarked) [Compound 21256088] the figure was above 100 µM; with `Cc1nc(CN)cc(N2CCC(C(O)c3nccn3C)CC2)n1` (centres unmarked) [Compound 32807865], above 100 µM.

Turning to `Clc1ccc2c(N3CCN(CCCN4CCN(c5ccnc6cc(Cl)ccc56)CC4)CC3)ccnc2c1` [piperaquine, reference compound], the EC50 turned out to be 11.6 µM.
